Measured values from patent publication EP0023335A1, “N-Hydroxyalkylimidazoline derivatives, a method for their preparation and their application” (Henkel Kommanditgesellschaft auf Aktien, priority 1979, dated 1981).
Converted amounts (≈) assume the structure as drawn.

Legend:
Type in all cases: cell-based
[1] = system: Staphylococcus aureus SG 511; assay: Inhibition series in liquid nutrient medium, tube test CII1 (DGHM guidelines); details: SG511, read-out: antimikrobielle Wirkung (Hemmreihen)
Excerpt: (§1) Die antimikrobielle Wirkung der vorstehenden Imidazolin-Acetate geht aus folgender Tabelle hervor:
(§2) Die Prüfung erfolgte in Hemmreihen in flüssigem Nährsubstrat gegenüber den genannten Keimen im Röhrchentest CII1 gemäß Richtlinien der DGHM für chemische Desinfektionsmittel.

[2] = system: Candida albicans ATCC 10 231; assay: as above; details: ATCC10, read-out: antimikrobielle Wirkung (Hemmreihen)
Excerpt: as §1, §2

Staphylococcus aureus = assay: Microbicidal action in suspension test; details: inoculum 3,0 x 10^8 /ml diluted 1:100, room temperature, in H2O
Procedure: (§3) 55,0 g (0,26 Mol) des Imidazolins Nr. 6 der Tabelle 1 wurden in 30 ml Isopropanol gelöst und mit 32,6 g (0,26 Mol) Benzylchlorid in 3 Stunden bei 80'- 85 °C quaterniert. Danach wurde das Isopropanol abdestilliert und das Produkt mit Wasser auf 30 % Aktivsubstanz eingestellt. Die Ergebnisse der Prüfung der mikrobiziden Wirkung einiger Imidazoliniumsalze der Tabelle 2 finden sich in der nachfolgenden Tabelle 3: […]

Escherichia coli = assay: Microbicidal action in suspension test; details: inoculum 3,7 x 10^8 /ml diluted 1:100, room temperature, in H2O
Procedure: as §3

Candida albicans = assay: Microbicidal action in suspension test; details: inoculum 1,9 x 10^8 /ml diluted 1:100, room temperature, in H2O
Procedure: as §3

Pseudomonas aeruginosa = assay: Microbicidal action in suspension test; details: inoculum 1,6 x 10^8 /ml diluted 1:100, room temperature, in H2O
Procedure: as §3

Structure (SMILES) | MIC [1] | MIC [2] | Abtötungszeit in Minuten (Staphylococcus aureus; 10 ppm active) | Abtötungszeit in Minuten (Staphylococcus aureus; 50 ppm active) | Abtötungszeit in Minuten (Staphylococcus aureus; 100 ppm active) | Abtötungszeit in Minuten (Escherichia coli; 10 ppm active) | Abtötungszeit in Minuten (Escherichia coli; 50 ppm active) | Abtötungszeit in Minuten (Escherichia coli; 100 ppm active) | Abtötungszeit in Minuten (Candida albicans; 50 ppm active) | Abtötungszeit in Minuten (Candida albicans; 100 ppm active) | Abtötungszeit in Minuten (Pseudomonas aeruginosa; 50 ppm active) | Abtötungszeit in Minuten (Pseudomonas aeruginosa; 100 ppm active) | Abtötungszeit in Minuten (Candida albicans; 10 ppm active) | Abtötungszeit in Minuten (Pseudomonas aeruginosa; 10 ppm active)
CCCCCCCCCCC(O)CN1CCN=C1CCCCCCCCC (stereo not shown) [Imidazolin-Nr.4-acetat] | < 10 µg/mL | 50 µg/mL (≈ 131 µM) | – | – | – | – | – | – | – | – | – | – | – | –
CCCCCCCCCC1=[N+](C)CCN1CC(O)CCCCCCCC (stereo not shown) [Imidazoliniumsalz 1] | – | – | 60 Minuten | ≤ 2,5 Minuten | ≤ 2,5 Minuten | x (x = > 120 Minuten) | 20 Minuten | ≤ 2,5 Minuten | 40 Minuten | 10 Minuten | 20 Minuten | 10 Minuten | – | –
CCCCCCCCCCC(O)CN1CC[N+](C)=C1CCCCCCC (stereo not shown) [Imidazoliniumsalz 3] | – | – | ≤ 2,5 Minuten | ≤ 2,5 Minuten | – | 5 Minuten | ≤ 2,5 Minuten | – | 5 Minuten | – | 10 Minuten | – | 20 Minuten | 60 Minuten
CCCCCCCCCCC(O)CN1CC[N+](C)=C1CCCCCCCCC (stereo not shown) [Imidazoliniumsalz 4] | – | – | 5 Minuten | 5 Minuten | – | 60 Minuten | 10 Minuten | – | 20 Minuten | – | 10 Minuten | – | 20 Minuten | 10 Minuten
